In PMC12595434, “Development of retinoid nuclear receptor pathway antagonists through targeting aldehyde dehydrogenase 1A3” (iScience, 2025):

Key:
5HT1a = 5HT1a (Homo sapiens, UniProt P08908); experiment: Off-target profiling panel; type: binding; settings: read-out: Inhibition by MBE1 at 10 μM (%)
5HT2A = 5HT2A (Homo sapiens, UniProt P28223); experiment: Off-target profiling panel; type: binding; settings: read-out: Inhibition by MBE1 at 10 μM (%)
CDCP1 = target: T1, CDCP1 (Homo sapiens, UniProt Q9H5V8); experiment: Thermal proteome profiling (TPP) in A375 cells; type: cell-based; settings: CDCP1, 1 uM
T1 construct: Treated A375 cells were harvested from 10 × 15 cm plates; endogenous in cells; host or cells: A375 melanoma cells

DAT = DAT (Homo sapiens, UniProt Q01959); experiment: Off-target profiling panel; type: binding; settings: read-out: Inhibition by MBE1 at 10 μM (%)
5HTT = 5HTT (Homo sapiens, UniProt P31645); experiment: Off-target profiling panel; type: binding; settings: read-out: Inhibition by MBE1 at 10 μM (%)
H1 = H1 (Homo sapiens, UniProt P35367); experiment: Off-target profiling panel; type: binding; settings: read-out: Inhibition by MBE1 at 10 μM (%)
ACHE = ACHE (Homo sapiens, UniProt P22303); experiment: Off-target profiling panel; type: biochemical; settings: read-out: Inhibition by MBE1 at 10 μM (%)
NET = NET (Homo sapiens, UniProt P23975); experiment: Off-target profiling panel; type: binding; settings: read-out: Inhibition by MBE1 at 10 μM (%)
ALDH1L2 = target: T2, ALDH1L2 (Homo sapiens, UniProt Q3SY69); experiment: Recombinant enzyme activity assay; type: biochemical; settings: selectivity profiling
T2 construct: made in house; host or cells: BL21-DE3 E. coli

ALDH3A1 = target: T3, ALDH3A1 (Homo sapiens, UniProt P30838); experiment: Recombinant enzyme activity assay; type: biochemical; settings: selectivity profiling
T3 construct: made in house; host or cells: BL21-DE3 E. coli

ALDH1L1 = target: T4, ALDH1L1 (Homo sapiens, UniProt O75891); experiment: Recombinant enzyme activity assay; type: biochemical; settings: selectivity profiling
T4 construct: made in house; host or cells: BL21-DE3 E. coli

[1] = system: panel of 23 human cancer cell lines; experiment: Aldefluor assay, panel of 23 human cancer cell lines; type: cell-based; settings: 100 nM; most solid cancer types except liver cancer
Procedure: To determine the breadth of ALDH1A3 activity across human cancers and assess the target engagement of these discovered compounds across tumor models, we profiled a panel of 23 human cancer cell lines with the Aldefluor assay. […] Next, we assessed whether ALDH1A3 affects cell growth across this broad panel of cancer types by testing proliferation for each cell line with and without MBE1.5.
In addition, cells were suspended at a concentration of 100,000 cells per mL. Finally, DMSO was added to at 1% final in all cells to improve kinetics of the assay. For compound titrations, concentrated compound stock was added first to tubes and a uniform Aldefluor buffer containing the cell suspension was added to dilute to final volumes. Cells were analyzed by a BD LSRII for flow cytometry and were sorted using a FACSAria Fusion cell sorter (BD Biosciences) equipped with a 70 micron nozzle. Sample and sort collection tubes were kept at 4°C. […] DAPI was used as a live-dead indicator.

T1 sequence (Q9H5V8 30-836): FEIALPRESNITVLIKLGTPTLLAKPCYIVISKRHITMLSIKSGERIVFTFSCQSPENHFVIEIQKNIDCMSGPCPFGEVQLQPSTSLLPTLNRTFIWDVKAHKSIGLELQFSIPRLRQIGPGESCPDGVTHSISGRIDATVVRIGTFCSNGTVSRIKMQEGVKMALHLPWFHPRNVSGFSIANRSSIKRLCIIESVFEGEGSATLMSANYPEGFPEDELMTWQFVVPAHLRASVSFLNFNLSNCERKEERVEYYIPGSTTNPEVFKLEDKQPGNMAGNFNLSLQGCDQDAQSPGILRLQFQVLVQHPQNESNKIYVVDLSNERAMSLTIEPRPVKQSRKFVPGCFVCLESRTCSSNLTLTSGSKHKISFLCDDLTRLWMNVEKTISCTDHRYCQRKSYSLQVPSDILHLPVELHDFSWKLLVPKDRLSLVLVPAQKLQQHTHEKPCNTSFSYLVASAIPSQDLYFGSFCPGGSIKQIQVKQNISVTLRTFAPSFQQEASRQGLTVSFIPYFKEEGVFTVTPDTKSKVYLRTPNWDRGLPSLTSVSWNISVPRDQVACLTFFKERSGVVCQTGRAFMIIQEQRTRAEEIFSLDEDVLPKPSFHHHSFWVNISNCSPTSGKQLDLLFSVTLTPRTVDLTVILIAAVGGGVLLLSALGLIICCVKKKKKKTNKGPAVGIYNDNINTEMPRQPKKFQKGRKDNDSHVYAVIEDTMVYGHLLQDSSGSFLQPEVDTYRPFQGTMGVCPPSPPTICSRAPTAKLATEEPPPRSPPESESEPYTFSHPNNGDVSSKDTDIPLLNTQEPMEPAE
T3 sequence (P30838 whole entry): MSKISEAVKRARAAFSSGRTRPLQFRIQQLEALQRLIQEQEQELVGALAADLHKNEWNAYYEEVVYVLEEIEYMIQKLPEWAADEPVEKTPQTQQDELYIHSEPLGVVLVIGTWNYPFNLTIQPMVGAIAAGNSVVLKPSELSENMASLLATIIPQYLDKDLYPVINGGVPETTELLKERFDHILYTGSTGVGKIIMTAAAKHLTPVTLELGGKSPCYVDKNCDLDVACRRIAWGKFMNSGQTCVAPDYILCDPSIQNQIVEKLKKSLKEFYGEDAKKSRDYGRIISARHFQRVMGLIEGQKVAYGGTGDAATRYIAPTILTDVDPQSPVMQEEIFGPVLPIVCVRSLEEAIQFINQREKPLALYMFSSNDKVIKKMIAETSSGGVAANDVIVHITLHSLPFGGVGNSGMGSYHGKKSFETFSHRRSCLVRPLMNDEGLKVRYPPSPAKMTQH
T4 sequence (O75891 whole entry): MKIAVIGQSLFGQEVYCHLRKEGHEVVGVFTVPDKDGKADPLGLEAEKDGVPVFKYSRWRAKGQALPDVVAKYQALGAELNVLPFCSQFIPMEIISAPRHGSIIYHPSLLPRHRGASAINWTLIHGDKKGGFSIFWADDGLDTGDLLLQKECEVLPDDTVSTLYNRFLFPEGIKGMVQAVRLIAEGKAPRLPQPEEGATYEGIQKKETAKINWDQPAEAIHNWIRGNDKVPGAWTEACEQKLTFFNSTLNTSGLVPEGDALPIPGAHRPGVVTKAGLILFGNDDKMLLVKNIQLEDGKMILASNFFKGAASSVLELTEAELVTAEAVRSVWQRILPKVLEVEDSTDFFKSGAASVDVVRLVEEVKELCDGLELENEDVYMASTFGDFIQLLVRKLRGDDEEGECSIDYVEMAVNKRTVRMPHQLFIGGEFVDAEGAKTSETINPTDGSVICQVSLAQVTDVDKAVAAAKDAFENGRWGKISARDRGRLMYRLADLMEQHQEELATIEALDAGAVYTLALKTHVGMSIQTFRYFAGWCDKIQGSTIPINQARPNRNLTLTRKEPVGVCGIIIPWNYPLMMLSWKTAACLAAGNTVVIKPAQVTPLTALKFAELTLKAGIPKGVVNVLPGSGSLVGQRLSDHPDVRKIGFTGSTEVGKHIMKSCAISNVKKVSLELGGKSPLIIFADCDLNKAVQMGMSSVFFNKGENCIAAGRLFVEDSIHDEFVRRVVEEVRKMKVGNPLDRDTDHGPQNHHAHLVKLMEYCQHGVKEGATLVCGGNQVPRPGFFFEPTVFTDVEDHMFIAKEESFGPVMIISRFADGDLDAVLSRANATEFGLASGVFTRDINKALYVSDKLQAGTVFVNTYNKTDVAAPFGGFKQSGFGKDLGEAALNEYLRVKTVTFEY
H1, sequence (P35367 whole entry): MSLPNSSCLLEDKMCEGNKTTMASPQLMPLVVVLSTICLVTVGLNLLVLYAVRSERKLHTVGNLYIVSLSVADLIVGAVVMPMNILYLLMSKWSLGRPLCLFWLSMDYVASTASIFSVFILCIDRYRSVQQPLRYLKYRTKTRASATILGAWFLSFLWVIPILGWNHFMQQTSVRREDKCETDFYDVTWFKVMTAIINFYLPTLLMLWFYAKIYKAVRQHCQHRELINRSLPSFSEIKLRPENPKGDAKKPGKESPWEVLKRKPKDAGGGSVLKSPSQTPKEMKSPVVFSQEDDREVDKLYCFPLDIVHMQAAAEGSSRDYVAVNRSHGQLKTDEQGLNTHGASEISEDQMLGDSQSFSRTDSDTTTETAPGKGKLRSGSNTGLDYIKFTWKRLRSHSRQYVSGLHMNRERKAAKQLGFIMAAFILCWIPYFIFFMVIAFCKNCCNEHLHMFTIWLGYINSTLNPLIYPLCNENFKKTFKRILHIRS
5HT1a, sequence (P08908 whole entry): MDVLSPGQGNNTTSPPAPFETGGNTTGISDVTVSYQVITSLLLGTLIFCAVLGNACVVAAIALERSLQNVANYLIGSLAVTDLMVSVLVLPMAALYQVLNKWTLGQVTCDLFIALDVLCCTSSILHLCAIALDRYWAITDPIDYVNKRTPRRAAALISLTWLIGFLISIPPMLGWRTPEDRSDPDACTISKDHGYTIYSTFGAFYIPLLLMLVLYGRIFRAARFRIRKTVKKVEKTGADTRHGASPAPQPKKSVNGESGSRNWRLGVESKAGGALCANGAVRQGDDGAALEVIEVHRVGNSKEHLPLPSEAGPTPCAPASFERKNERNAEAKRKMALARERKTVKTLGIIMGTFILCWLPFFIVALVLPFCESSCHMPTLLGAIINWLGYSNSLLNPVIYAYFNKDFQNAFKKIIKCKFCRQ
5HTT, sequence (P31645 whole entry): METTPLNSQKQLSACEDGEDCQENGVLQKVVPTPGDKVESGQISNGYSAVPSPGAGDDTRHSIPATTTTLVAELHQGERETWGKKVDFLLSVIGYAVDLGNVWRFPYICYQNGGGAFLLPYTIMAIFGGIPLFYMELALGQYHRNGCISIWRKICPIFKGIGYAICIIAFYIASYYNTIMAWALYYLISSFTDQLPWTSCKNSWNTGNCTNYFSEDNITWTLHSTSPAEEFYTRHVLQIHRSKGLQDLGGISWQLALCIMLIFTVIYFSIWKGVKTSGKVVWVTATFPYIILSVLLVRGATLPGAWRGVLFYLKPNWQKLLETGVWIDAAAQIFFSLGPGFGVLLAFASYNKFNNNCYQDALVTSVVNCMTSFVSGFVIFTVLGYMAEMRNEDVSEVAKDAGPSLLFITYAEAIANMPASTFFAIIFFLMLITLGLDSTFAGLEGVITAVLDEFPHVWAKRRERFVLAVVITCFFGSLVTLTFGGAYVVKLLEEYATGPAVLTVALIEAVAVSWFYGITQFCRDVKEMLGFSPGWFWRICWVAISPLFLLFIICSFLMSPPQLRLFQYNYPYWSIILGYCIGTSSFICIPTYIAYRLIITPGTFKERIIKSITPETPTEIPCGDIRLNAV
ACHE, sequence (P22303 32-614): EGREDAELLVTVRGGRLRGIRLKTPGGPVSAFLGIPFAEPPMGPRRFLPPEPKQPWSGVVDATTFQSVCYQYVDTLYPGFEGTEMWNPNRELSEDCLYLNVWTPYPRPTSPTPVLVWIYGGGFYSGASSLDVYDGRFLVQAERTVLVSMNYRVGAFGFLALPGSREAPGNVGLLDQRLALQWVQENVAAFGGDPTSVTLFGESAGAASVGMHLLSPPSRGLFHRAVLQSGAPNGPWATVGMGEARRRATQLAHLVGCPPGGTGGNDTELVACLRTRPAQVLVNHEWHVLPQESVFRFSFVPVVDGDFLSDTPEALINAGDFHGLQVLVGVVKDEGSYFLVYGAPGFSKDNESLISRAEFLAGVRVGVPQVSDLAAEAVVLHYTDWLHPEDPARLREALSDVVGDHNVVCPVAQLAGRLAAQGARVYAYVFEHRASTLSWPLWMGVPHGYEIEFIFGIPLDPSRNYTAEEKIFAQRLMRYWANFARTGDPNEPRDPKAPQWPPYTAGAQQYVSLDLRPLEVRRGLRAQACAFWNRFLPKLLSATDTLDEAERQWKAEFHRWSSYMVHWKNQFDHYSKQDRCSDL
NET, sequence (P23975 whole entry): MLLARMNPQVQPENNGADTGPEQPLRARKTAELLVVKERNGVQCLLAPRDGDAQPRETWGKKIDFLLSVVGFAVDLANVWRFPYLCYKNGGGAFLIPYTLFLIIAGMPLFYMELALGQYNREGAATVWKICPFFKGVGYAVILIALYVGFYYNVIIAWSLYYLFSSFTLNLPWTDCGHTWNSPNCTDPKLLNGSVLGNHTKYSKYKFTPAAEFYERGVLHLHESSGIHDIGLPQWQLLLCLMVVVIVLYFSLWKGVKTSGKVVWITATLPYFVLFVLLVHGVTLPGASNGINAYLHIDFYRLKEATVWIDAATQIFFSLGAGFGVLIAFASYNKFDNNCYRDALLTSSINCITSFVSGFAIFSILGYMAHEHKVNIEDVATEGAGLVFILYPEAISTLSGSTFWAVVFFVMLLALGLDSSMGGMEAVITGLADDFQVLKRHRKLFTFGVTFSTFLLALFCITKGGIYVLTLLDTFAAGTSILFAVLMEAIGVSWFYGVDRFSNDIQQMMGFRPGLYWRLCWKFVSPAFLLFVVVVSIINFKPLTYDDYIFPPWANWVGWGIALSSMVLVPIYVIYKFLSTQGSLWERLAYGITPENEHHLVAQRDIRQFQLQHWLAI

## CCc1cnccc1C(=O)Nc1cc2c(cc1F)NC(=O)CC2 [MBE1, 3-ethyl-N-(7-fluoro-2-oxo-3,4-dihydro-1H-quinolin-6-yl)pyridine-4-carboxamide]
5HT1a
  inhibition at 10 µM: 3.78%
5HT2A
  inhibition at 10 µM: -16.1%
CDCP1; A-375, read-out: DMSO-1uM MBE1 TM shift
  ΔTm at 1 µM: -7.8 °C
CDCP1
  1uM MBE1 Tm: 63.2685
DAT
  inhibition at 10 µM: -13.1%
5HTT
  inhibition at 10 µM: -24.2%
H1
  inhibition at 10 µM: -11.7%
ACHE
  inhibition at 10 µM: 5.81%
NET
  inhibition at 10 µM: -19.9%

## CCc1ccccc1C(=O)Nc1cc2c(cc1F)NC(=O)CC2 [MBE1.5, 2-ethyl-N-(7-fluoro-2-oxo-3,4-dihydro-1H-quinolin-6-yl)benzamide]
ALDH1L2
  inhibitory activity against ALDH1L2 (in words): no inhibition
ALDH3A1
  inhibitory activity against ALDH3A1 (in words): no inhibition
ALDH1L1
  inhibitory activity against ALDH1L1 (in words): no inhibition
[1]
  inhibition of Aldefluor activity across cancer cell line panel (in words): potently inhibited Aldefluor activity
